From patent US20260152533A1, “COMBINATION INHIBITORS FOR TREATING FIBROSIS” (Memorial Sloan-Kettering Cancer Center, priority 2021, published 2026)
Entries after “also recorded” stand apart in the source; their conditions may differ.

Tests used:
Type in all cases: cell-based, mouse
NIH-3T3 cells [1] = test: Western blot of NIH-3T3 cells (collagen I, GCN2, ATF4, PC); conditions: for rescue of TGFβ-induced collagen I depletion: metabolite; for GCN2 activation: cell-permeable metabolite
Source text: PSCs were isolated from C57BL/6 mice by differential centrifugation as previously described^49 and their mesenchymal origin was validated by analyzing the expression of various mesenchymal and epithelial markers. MFBs were isolated from FVB/N mice by differential centrifugation as previously described^50. DB7 mouse breast cancer cells were obtained from Alexander Borowsky (University of California Davis Comprehensive Cancer Center, Sacramento, CA, USA) through an MTA to Ohio State University (OSU). KPC (Kras^LSL-G12D; Trp53^LSL-R172H; Pdx1-Cre) mouse PDAC cells were a gift from Scott Lowe (Memorial Sloan Kettering Cancer Center. (MSKCC)). All cells were cultured at 37° C. in 5% carbon dioxide (CO2) and 20% oxygen (O2) and were maintained in Dulbecco's Modified Eagles medium (DMEM) (25 mM D-glucose, 2 mM L-glutamine) supplemented with 10% fetal bovine serum (FBS) (Gemini), 100 units/ml penicillin and 100 μg/ml streptomycin. Primary PSC and MFB cells were kept in culture for no more than ten passages. Experiments with iCAFs and myCAFs were performed as previously described^29. In brief, qPSCs were generated by culturing PSCs in a dome of GFR Matrigel (Corning) in DMEM; iCAFs were generated by culturing PSCs in a dome of GFR Matrigel in DMEM conditioned by KPC cells for 48 h; myCAFs were generated by monolayer culture of PSCs. Differentiation was validated by analyzing the expression of iCAF/myCAF markers^29. For experiments with different glutamine concentrations, cells were seeded in regular DMEM and the medium was changed 5-6 hours later or the following day to glucose and glutamine-free DMEM supplemented with 10% dialyzed FBS (Gemini) and 20 mM D-glucose, 2 mM L-glutamine (100%), 0.4 mM L-glutamine (20%) or 0.2 mM L-glutamine (10%). All media were prepared by the Media Preparation Facility at MSKCC. Cells were verified as mycoplasma-free by the MycoAlert Mycoplasma Detection Kit (Lonza).
Lysates were generated by incubating cells or ground tumors in RIPA buffer (Millipore); […] of cleared lysate were analyzed by SDS-polyacrylamide gel electrophoresis (SDS-PAGE) as previously described^11. […] The following secondary antibodies were used: anti-rabbit horseradish peroxidase (HRP) (1:5,000; GE, NA934V), anti-mouse HRP (1:5,000; GE, NA931). Quantification of band intensities of collagen I relative to […] or vinculin in tumor allograft experiments was performed with Image Lab software v6.0 (Bio-Rad).

NIH-3T3 cells [2] = test: Relative metabolite abundance (GC-MS), NIH-3T3 cells; conditions: for TGFβ-induced depletion of TCA cycle intermediates and NEAAs: 10% Gln, metabolite 5 mM, 48 hours (FIG. 8I)
Description: Cells were plated in six-well cell culture plates at a concentration aimed to reach 0.5-1×10^6 cells at the time of harvest. For quantification of relative metabolite abundance, cells were cultured with glutamine-free DMEM containing different concentrations of L-glutamine and supplemented with 10% dialyzed FBS and in some experiments were treated with TGFβ for 48 hours. For the [U-^13C]and [3,4-^13C]glucose tracing experiments, cells were cultured as above, and in the last 8 hours media was replaced with DMEM without D-glucose and L-glutamine supplemented with 2 mM or 0.2 mM L-glutamine and 10 mM [U-^13C]or [3,4-^13C]D-glucose (Cambridge Isotope Laboratories) and 10% dialyzed FBS. […] For relative quantification of metabolites by gas chromatography-mass spectroscopy (GC-MS), cells were washed briefly with PBS, which was then fully aspirated and metabolism was quenched by immediately adding 1 mL of 80:20 methanol:water stored at −80° C. containing 20 μM deuterated 2-hydroxyglutarate (d5-2HG) as an internal standard. […]
GC-MS measurements were performed as described before^11. Ions used for quantification of metabolite levels were as follows: d5-2HG m/z 354; citrate m/z 465; alpha-ketoglutarate m/z 304; succinate m/z 247; fumarate m/z 245; malate m/z 335; aspartate m/z 232; hydroxyproline m/z 332; proline m/z 216; glutamate m/z 246; glutamine m/z 245; lactate m/z 219; pyruvate m/z 174. […] For relative quantification of cell samples, integrated peak areas were normalized to the internal standard d5-2HG and to the packed cell volume of each sample. Absolute quantification of hydroxyproline in tumor acid hydrolysates was performed against a standard curve of commercial trans-4-hydroxy-L-proline (Sigma). […]

NIH-3T3 cells [3] = test: Quantification of gene expression (qPCR), fibroblasts; conditions: for Col1a1 mRNA expression: PC-deleted cells, 10% Gln, 48 hours (FIG. 5D, FIG. 11N)
Description: Total RNA was isolated from fibroblasts with Trizol (Life Technologies) according to the manufacturer's instructions, and […] RNA was used for cDNA synthesis using iScript (Bio-Rad). Real-time qPCR analysis was performed in technical triplicates using 1:40 diluted cDNAs and 0.1 μM forward and reverse primers together with Power SYBR Green (Life Technologies) in a QuantStudio 7 Flex (Applied Biosystems). Gene expression was quantified in Microsoft Excel 365 as relative expression ratio using primer efficiencies calculated by a relative standard curve. The geometric mean of the endogenous control genes 18 s, Actb and Rplp0 was used as reference sample.

[4] = low Gln (10%), TGFβ, 48 hours (FIG. 1E)
[5] = PC-deleted cells, low Gln, 48 hours (FIG. 4B; MFBs FIG. 11E)

Row | Compound | collagen I production (NIH-3T3 cells [1]; 10% Gln, TGFβ) | collagen I levels (NIH-3T3 cells [1]; 20% Gln, TGFβ, 48 hours (FIG. 1B)) | repressive phosphorylation of the E1α subunit of the pyruvate dehydrogenase (PDH) complex (NIH-3T3 cells [1]; 100% Gln, TGFβ 48 hours (FIG. 3B)) | collagen I levels in growing cells (NIH-3T3 cells [1]; 100% and 50% Gln, TGFβ, 48 hours) | PC protein levels (NIH-3T3 cells [1]; all fibroblast types analysed, TGFβ 48 hours) | ATF4 (NIH-3T3 cells [1]; [4]) | GCN2 phosphorylation (NIH-3T3 cells [1]; [4]) | free levels of most TCA cycle intermediates (NIH-3T3 cells [2]; low Gln (10%), TGFβ, 48 hours (FIG. 1H)) | PC transcript levels (NIH-3T3 cells [3]; all fibroblast types analysed, 100% Gln, TGFβ 24 hours) | rescue of TGFβ-induced collagen I depletion (NIH-3T3 cells [1]; 10% Gln, TGFβ, 48 hours) | collagen I levels (NIH-3T3 cells [1]; [5]) | GCN2 activation (NIH-3T3 cells [1]; low Gln (10%), TGFβ, 48 hours) | TGFβ-induced depletion of TCA cycle intermediates and NEAAs (NIH-3T3 cells [2]) | Col1a1 mRNA expression (NIH-3T3 cells [3])
1 | TGFβ: transforming growth-factor beta; TGFβ-1 purchased from Peprotech | ceased to proliferate and produce collagen I | no longer able to increase | reduced | upregulated | reduced | upregulated | displayed phosphorylation | substantially reduced | reduced |  |  |  |  | 
2 | COC(=O)CC[C@H](N)C(=O)OC [dm-Glu, L-glutamic acid dimethylester] |  |  |  |  |  |  |  |  |  | sufficient to restore | increased | prevented | rescued | rescued
3 | COC(=O)CCC(=O)C(=O)OC [dm-αKG, dimethyl alpha-ketoglutarate] |  |  |  |  |  |  |  |  |  | able to rescue | increased | prevented; also recorded: suppressed | rescued | rescued
